# From patent US20230240290A1, “USE OF (Z)-3-HEXENYL ESTERS AND METHOD FOR PROTECTING PLANTS AGAINST PESTS” (UNIVERSITAT POLITÈCNICA DE VALÈNCIA, priority 2020, published 2023)
# Experiments:
# [1] = Emission kinetics of the dispenser (gravimetric method); format: physicochemical; conditions: 4-mL LD polyethylene vial loaded with 4 ml, field conditions; slope of the fitted model
# Experimental: Two different types of polymeric emitters were used to test the activation level that different emission levels of (Z)-3-hexenyl propionate can provide: 4-mL low-density (LD) polyethylene vial and 4-mL high-density (HD) polyethylene vial. The highest emission level (5 mg/day) was achieved through previous laboratory studies with LD dispensers loaded with 20 mg of the pure substance. The lowest emission level (0.01 mg/day) was provided by HD vials loaded with a 1:100 mixture of (Z)-3-hexenyl propionate and paraffinic oil (0.02:2; g:g). The emission kinetics of the emitters used during the experiments was controlled by studying weight loss (gravimetric method). Additional dispensers were placed in the same environmental conditions, measuring their weight weekly with a precision scale (0.0001 g). The difference in weight recorded in each period will be the emitted quantity of the substance for each type of dispenser. To obtain the mean emission level of each dispenser, the recorded weights (y) are related to the aging time (x) using a multiple regression analysis.
# As mentioned earlier, 2 zones were selected in each of the greenhouses in which, on 22 Feb. 2019, a dispenser (4-ml low-density (LD) polyethylene vial) loaded with 4 ml of (Z)-3-hexenyl was hung every 20 m^2 in one of them, and the other with the same surface area was used as a control treatment. […]
# [2] = tested on: Tuta absoluta; assay: Laying of Tuta absoluta on exposed tomato plants; format: in vivo; conditions: T. absoluta, 72 hours; permanent exposure
# Experimental: It was also studied whether the defensive activation induced by exposure to (Z)-3-hexenyl propanoate could influence the development of two highly important phytophages in tomato cultivation, the red spider, T. urticae, and the lepidoptera T. absoluta. The individuals used in these experiments came from the captive breeding of these species that are kept in the IVIA described above. The exposure time of the plant to the volatile was tested on both phytophages in two different ways, one where the plant was only exposed to the volatile for 24 hours and then the herbivore to be assayed was immediately released, and the other where the volatile was permanently exposed throughout the experiment.
# For this purpose, two climatic chambers were used under the same environmental conditions [25±2° C., 65±5% HR and 14:10 h (L:D) photoperiod], wherein, to avoid interference between the volatiles, one was assigned to the (Z)-3-hexenyl propanoate treatments and one to the control treatment. […]
# Two consecutive experiments were performed to assess the effect of exposure to both volatiles on T. absoluta. […] The laying of T. absoluta was assessed in 8 tomato plants (cv. Moneymaker) per treatment. […] After this time, T. absoluta adults were removed, and the number of eggs was counted.
# [3] = tested on: PR1 (marker gene for the SA signaling pathway); assay: Field (commercial greenhouse) assay, transcriptional response of PR1 in tomato plants; format: in vivo, tomato cv Raf; conditions: LD dispenser every 20 m2, at 30 and 60 days
# Experimental: (§1) To know the behavior of the dispensers loaded with (Z)-3-hexenyl propionate under real cultivation conditions, four commercial greenhouses for tomato cv Raf located in Xilxes (Castellón province), with a history of problems with T. absoluta contamination at the end of winter, were selected. An experimental design of randomized blocks was carried out where each greenhouse was considered a block with two treatments per block and 4 repetitions per treatment. […]
# (§2) Twenty plants randomly chosen by repetition were sampled weekly for 11 weeks, beginning 30 Jan. […] First, the number of leaflets infested by T. absoluta per plant was counted. Then the number of N. tenuis (adults and nymphs) throughout the apical third of each plant (leaves, flowers and shoots) was counted. Following the methodology described above, 6 samples were taken from the apical part of each plant per repetition, and these samples were immediately introduced into liquid nitrogen to quantify the expression of the PR1 and PIN2 genes (described in Example 1 and Example 2). The expression of these genes was quantified one day before, 4, and 8 weeks after hanging the dispensers in the greenhouses.
# [4] = tested on: Tuta absoluta; assay: Field (commercial greenhouse) assay, leaflets infested by T. absoluta; format: in vivo; conditions: commercial tomato greenhouse, infested leaflets per plant, 500 dispensers/ha
# Experimental: as §1, §2
compound,measurement,setting,value
CC/C=C\CCOC(=O)CC [(Z)-3-hexenyl propanoate],Mean emission rate from the dispenser,[1],12.2 mg/day
same,Reduction in laying compared to the control,[2],67.2±15.0%
same,Expression of PR1 compared to plants in the control zone,[3],significantly higher
same,Infestation of T. absoluta lower than control,[4],about 58%
